Assay results from US7348155B2, “Method for identifying compounds for treating aging processes in the coronary circulatory system” (Sanofi-Aventis Deutschland GmbH, priority 2001, dated 2008).
“And” between values parts separate entries of the source, which are not always exact repeats. Identical values can stand only once.

Tests used:
Assay type in all cases: cell-based
[1] = tested on: human cardiac fibroblasts from explanted hearts in the terminal stage of cardiac insufficiency; experiment: Procollagen type I C-peptide ELISA (collagen synthesis) in fibroblasts from hearts in the terminal stage of cardiac insufficiency (EFH); conditions: 10^−7 mol/l; for Collagen synthesis (procollagen type I C-peptide, Absorption, in % of the controls), MV: mean value over EFH hearts (SEM as spread)
Procedure: Human cardiac fibroblasts were isolated from seven explanted human hearts in the terminal stage of cardiac insufficiency due to dilated cardiomyopathy. Four cell preparations were also made from healthy donor hearts. The fibroblasts were isolated in sterile 10 cm Petri dishes and cultured as previously described. After about 12 weeks of culturing, the cells reached the second passage with a confluence of approx. 80%. […] The determinations were carried out in duplicate or in triplicate. After the stimulation, the cells were washed, removed from the Petri dishes with 1 ml of PBS and centrifuged down in Eppendorf tubes (100 rpm, 5 min, 4° C.). The supernatant was discarded. 100 ul of lysis buffer (Nonidet P40, 0.5%, SDS 0.5%) were added to about 50 ul of cells and the mixture was incubated on ice for a further 20 minutes. The lysate was centrifuged once again (20 minutes, 1400 rpm, 4° C.) and the supernatant was used for the subsequent experiments. Protein was determined by means of the BCA (bicinchoninic acid) assay. The homogenates were diluted down to a protein concentration of 2 ug/ul.
(§1) Procollagen type I C-peptide in the fibroblasts from all the hearts was determined on a 96-well microtiter plate using a commercially obtainable solid-phase ELISA assay (TaKaRa Biomedicals, Shuzo Co, Ltd.). The assay was carried out in accordance with the manufacturer's instructions. […] The values for the procollagen type I C-peptide were determined using a standard curve of 10-640 ng/ml. The standards were provided by the manufacturer. The absorption values for the stimulations obtained with the controls (buffer) were set at 100%. The absorption values for the stimulated cells were related to the control values obtained for the same heart. In each case, the mean values from duplicate or triplicate determinations were used for the calculations. A bilateral, unpaired t test was used for statistically evaluating the comparison of the stimulation responses in control cells and in cardiac insufficiency cells.

[2] = tested on: human cardiac fibroblasts from healthy donor hearts; experiment: Procollagen type I C-peptide ELISA (collagen synthesis) in fibroblasts from control (healthy donor) hearts; conditions: 10^−7 mol/l; for Collagen synthesis (procollagen type I C-peptide, Absorption, in % of the controls), MV: mean value over control (donor) hearts
Procedure: Human cardiac fibroblasts were isolated from seven explanted human hearts in the terminal stage of cardiac insufficiency due to dilated cardiomyopathy. Four cell preparations were also made from healthy donor hearts. The fibroblasts were isolated in sterile 10 cm Petri dishes and cultured as previously described. After about 12 weeks of culturing, the cells reached the second passage with a confluence of approx. 80%. At this stage, the serum was withdrawn for 48 hours and the cells were subsequently stimulated for various intervals of time (between 6 and 24 hours) with UII, Ang II, TNFalpha, TGFβ, UII+TNFa, (in each case 10^−7 mol/l), or buffer (control). The determinations were carried out in duplicate or in triplicate. After the stimulation, the cells were washed, removed from the Petri dishes with 1 ml of PBS and centrifuged down in Eppendorf tubes (100 rpm, 5 min, 4° C.). The supernatant was discarded. 100 ul of lysis buffer (Nonidet P40, 0.5%, SDS 0.5%) were added to about 50 ul of cells and the mixture was incubated on ice for a further 20 minutes. The lysate was centrifuged once again (20 minutes, 1400 rpm, 4° C.) and the supernatant was used for the subsequent experiments. Protein was determined by means of the BCA (bicinchoninic acid) assay. The homogenates were diluted down to a protein concentration of 2 ug/ul.
as §1

[3] = tested on: fibroblasts from human hearts; experiment: Induction of mRNAs (collagen 1, MMP2, TGFbeta1, CTGF) in heart fibroblasts, real-time PCR; conditions: 1 μM, 6 hours stimulation, fibroblasts from three human hearts, GAPDH mRNA as standard reference
Procedure: Fibroblasts were isolated from human hearts as described in Cell and Tissue Research 286, 145-153 (1996). 96-98% of the resulting cell culture consisted of fibroblasts.
For the purpose of implementing this procedure, heart tissue was cut into small pieces and incubated three times, at 37° C. for 20 minutes, in KHB (Krebs Henseleit buffer) containing 2 mg of collagenase/ml and 2 mg of dispase/ml. The homogenates were combined and then centrifuged. The sediments were taken up in 10 ml of KHB. The cells were added, in portions of in each case 2 to 3 ml, to uncoated plastic containers. The volume was made up to 10 ml with DMEM (Dulbecco's modification of Eagle's medium) containing […] and 10% FCS (fetal calf serum). After having been incubated at 37° C. for 1 hour, the cells were washed twice with PBS (phosphate-buffered saline) and subsequently cultured, at 37° C. and 5% CO2, for approx. 4-8 weeks until 90% confluence had been reached. There then followed two further passages of in each case 4 weeks' duration. The cells employed in the present experiments were used after the second passage and at 70% to 90% confluence (approx. 3 months after isolation).
The reagents for implementing the cell culture techniques were obtained from Gibco BRL Life Technologies. The cells were first of all kept, at 37° C., in serum-free DMEM containing 4000 mg of glucose/l, 2 mM L-glutamine, 100 μg/0.1 mg of penicillin/streptomycin/ml and 0.1% BSA (bovine serum albumin) before angiotensin II or urotensin II was added, […] RNA was then prepared from the cells after 6 hours.
The RNA was isolated by means of standard methods using guanidinium chloride.
Reverse transcriptase (10 units/ng of RNA) was used to transcribe 500 ng of the RNA from each sample into DNA. For degrading the DNA, the entire volume, containing approx. 8-10 μg of RNA, was incubated with DNase I.
The RNAs were quantified using a LightCycler and a Fast Start SYBR Green RT-PCR kit supplied by Roche Molecular Biochemicals. Corresponding kits from other companies such as Applied Biosystems, Bio-Rad or Stratagene are also suitable for the same purpose. […] The quantities were equalized using GAPDH mRNA as the control.
Fibroblasts were isolated from three human hearts and used in the […]. […] The mRNAs (collagen 1, matrix metalloproteinase 2, TGFbeta1 and CTGF) were quantified by real-time PCR using a LightCycler™. […] Real-time PCR (polymerase chain reaction in real time) makes it possible to determine specific nucleic acids quantitatively. […]

| Substance | Collagen synthesis (procollagen type I C-peptide, Absorption, in % of the controls) ([1]; EFH heart No. 1, 24 h) | Collagen synthesis (procollagen type I C-peptide, Absorption, in % of the controls) ([1]; EFH heart No. 4, 24 h) | Collagen synthesis (procollagen type I C-peptide, Absorption, in % of the controls) ([1]; EFH heart No. 10, 5 h) | Collagen synthesis (procollagen type I C-peptide, Absorption, in % of the controls) ([1]; EFH heart No. 11, 5 h) | Collagen synthesis (procollagen type I C-peptide, Absorption, in % of the controls), MV [1] | Collagen synthesis (procollagen type I C-peptide, Absorption, in % of the controls), MV ([1]; listed as TGF β) | Collagen synthesis (procollagen type I C-peptide, Absorption, in % of the controls) ([2]; control heart No. 3, 6 h) | Collagen synthesis (procollagen type I C-peptide, Absorption, in % of the controls) ([2]; control heart No. 3, 12 h) | Collagen synthesis (procollagen type I C-peptide, Absorption, in % of the controls) ([2]; control heart No. 5, 6 h) | Collagen synthesis (procollagen type I C-peptide, Absorption, in % of the controls) ([2]; control heart No. 6, 6 h) | Collagen synthesis (procollagen type I C-peptide, Absorption, in % of the controls), MV [2] | MMP 2 mRNA ([3]; control 0.43 +/− 0.2) | CTGF mRNA ([3]; control 0.45 +/− 0.27) | Col 1 mRNA ([3]; control 0.56 +/− 0.1) | TGFbeta1 mRNA ([3]; control 0.60 +/− 0.09) | Collagen synthesis (procollagen type I C-peptide, Absorption, in % of the controls), MV ([1]; listed as Ang II) | Collagen synthesis (procollagen type I C-peptide, Absorption, in % of the controls) ([1]; EFH heart No. 12, 12 h) | Collagen synthesis (procollagen type I C-peptide, Absorption, in % of the controls) ([1]; EFH heart No. 13, 12 h) | Collagen synthesis (procollagen type I C-peptide, Absorption, in % of the controls) ([1]; EFH heart No. 14, 12 h) | Collagen synthesis (procollagen type I C-peptide, Absorption, in % of the controls), MV ([1]; listed as TNFalpha) |
| --- | --- | --- | --- | --- | --- | --- | --- | --- | --- | --- | --- | --- | --- | --- | --- | --- | --- | --- | --- | --- |
| TGFβ | 166 % of the controls | 377 % of the controls | 142 % of the controls | 123 % of the controls | 202 % of the controls | 202+/−52 % of the controls | 84 % of the controls | 123 % of the controls | 71 % of the controls | 110 % of the controls | 97 % of the controls |  |  |  |  |  |  |  |  |  |
| angiotensin II (DRVYIHPF; Angiotensin-2; UniProt P01019 25-32, looked up) [AII, reference compound] | 142 % of the controls | 471 % of the controls | 94 % of the controls | 113 % of the controls |  |  | 84 % of the controls | 92 % of the controls | 88 % of the controls |  | 88 % of the controls | 0.22 +/− 0.1 | 0.34 +/− 0.9 | 0.56 +/− 0.27 | 0.71 +/− 0.07 | 205+/−67 % of the controls and 205 % of the controls |  |  |  |  |
| TNFa | 166 % of the controls | 262 % of the controls | 67 % of the controls | 91 % of the controls | 139 % of the controls |  | 81 % of the controls | 92 % of the controls | 77 % of the controls | 92 % of the controls | 86 % of the controls |  |  |  |  |  | 107 % of the controls | 126 % of the controls | 190 % of the controls | 139+/−26 % of the controls |
